In ChEMBL document CHEMBL3507680, “University of Dundee, Gates Library screen for HepG2 cell viability”:

Test: Human HepG2 cell viability assay in 384 well format
Type: toxicity, cell-based
Design: dose 125 nL, time 70.5 hour; cytotoxicity at 70.5 h: concentration not given beside the values
Settings: HepG2 cells, read-out: Inhibition

Structure (SMILES)	cytotoxicity at 70.5 h [%]
Cn1nc(C2CCN(C(=O)c3cccs3)CC2)c2cccnc21	-4.94
COc1cccc(CC(=O)N2CCCC(c3n[nH]c4nccnc34)C2)c1 (stereo not drawn)	-10.4
Fc1cccc(Cl)c1CN1CCC(c2n[nH]c3ncccc23)CC1	13.7
Cc1ccc(CN2CCCC(c3nn(C)c4nccnc34)C2)s1 (stereo not drawn)	9.04
O=C(Cc1ccsc1)N1CCC(c2n[nH]c3nccnc23)CC1	-8.21
Cc1csc(C(Cc2ccsc2)NC(=O)Cn2cccnc2=O)n1 (stereo not drawn)	14.5
CCc1nc2ccccc2c(=O)n1CC1(O)CCN(CC(=O)OC)CC1	-10.9
O=C(Cn1cccnc1=O)NC(Cc1ccsc1)c1cccnc1 (stereo not drawn)	-6.19
CC(C)Oc1ccc(CN2CCC(c3n[nH]c4ncccc34)CC2)cc1	21.4
COCCNC(=O)c1cc(S(=O)(=O)N2CCCCCC2)cs1	15.3
Cc1nc(C2CCCN(C(=O)c3ccncc3)C2)c2sccn12 (stereo not drawn)	21.5
Cc1cnccc1CN1Cc2ccccc2O[C@]2(CC[C@H](CO)CC2)C1	15.1
Cc1cc(-c2cnn(CCNC(=O)CCn3cccn3)c2C2CC2)on1	-3.81
Cc1nc(C2CCN(C(=O)c3cnc(N(C)C)nc3)CC2)c2sccn12	1.86
COCCNCc1cc2c(C)cc(C)cc2n2c(=O)n(C)nc12	2.41
CCOCCCNCc1cc2c(C)cc(C)cc2n2c(=O)n(C)nc12	-0.158
Cc1cccnc1C(Cc1ccsc1)NC(=O)Cn1cccnc1=O (stereo not drawn)	-1.07
C=Cn1ncc(CN2C[C@@H]3C[C@@H](O)CN3C[C@H]2Cc2ccccc2)c1C	-5.5
CS(=O)(=O)N1CCCC(Cc2cncc(Br)c2)CC1 (stereo not drawn)	-2.69
CC(=O)N1CCCC(Cc2cncc(Br)c2)C1 (stereo not drawn)	-1.98
CN1CCC(Cc2cccc(-c3cc(F)ccc3C(=O)O)n2)CC1	-4.18

Structure (SMILES)	cytotoxicity at 70.5 h [%]
CC(C)N1CCC(Cc2cc(-c3cc(F)ccc3C(=O)O)ncn2)C1 (stereo not drawn)	-3
Cn1nc(C2CN(S(C)(=O)=O)C2)c2nccnc21	3.57
CN1CCCC(CCCc2cccnc2)(C(N)=O)C1 (stereo not drawn)	-3.41
CC(C)Oc1ccc(C(=O)N2CC[C@H](O)[C@@H](n3ccnc3)CC2)cc1	18.5
Cc1ncoc1C(=O)N1CC[C@@H](O)[C@@H](O)[C@H](N2CCC(F)(F)CC2)C1	-2.42
CNc1cccc(C2CCN(C(=O)c3cccnc3)CC2)n1	-5.08
Cc1cc(-c2ccccc2C(=O)O)nc(C2CCCN(C(C)C)C2)n1 (stereo not drawn)	-3.8
Cc1cc(C(=O)N2CCCC2c2nc(O)cc(C(C)C)n2)on1 (stereo not drawn)	-5.06
Cc1nc(Nc2ccccn2)cc(C2CCCN2Cc2ncc[nH]2)n1 (stereo not drawn)	-6.09
Cc1cc(-c2cccc(C(=O)O)c2)nc(C2CCN(C(C)C)CC2)n1	-3.8
CC(C)N1CCC(Cc2cc(-c3cccc(C(=O)O)c3)ncn2)CC1	-4.63
CC(C)C(=O)N1CCC(Cc2nccnc2Nc2ccccn2)CC1	-5.25
CC(=O)N1CCCC(c2ccc3sc(N)nc3n2)C1 (stereo not drawn)	-8.18
O=C(c1ccncc1)N1CCC(Cc2cnc3[nH]ccc3c2)CC1	-5.49
CNc1cccc(C2CCCN(C(=O)c3ccn(C)n3)C2)n1 (stereo not drawn)	16.5
O=C(Cc1ccc2c(c1)CCCC2)N[C@@H]1CC[C@@H](n2ccnc2)[C@@H]1O	-3.88
Cc1cc(-c2ccccc2C(=O)O)nc(C2CCCN(C)C2)n1 (stereo not drawn)	-7.61
Cc1ccccc1CNC(=O)c1ccccc1-n1cnc(CN)c1	-0.745
O=C(c1ccccn1)N1CCC(Cc2cnc3[nH]ccc3c2)CC1	-6.64
COc1ccccc1-c1nccnc1C1CCN(C(C)=O)CC1	-6.14
COCC(=O)N1CCOC(c2cccc(-c3cncnc3)n2)C1 (stereo not drawn)	-5.56

Structure (SMILES)	cytotoxicity at 70.5 h [%]
CC(C)N1CCCC(Cc2cncc(Br)c2)CC1 (stereo not drawn)	-4.98
Cc1ccccc1-c1cncc(C2CCN(CCO)CC2)n1	-8.45
CCc1cc(O)nc(C2CCCN2C(=O)COC)n1 (stereo not drawn)	-5.06
Cc1ncsc1-c1nnc(C2CCN(Cc3cccc(F)c3F)CC2)o1	38.7
CC(=O)N1CCCC1c1nc(C)no1 (stereo not drawn)	15.6
CC(C)CC(=O)N1CCCC1c1nccnc1Nc1ncccn1 (stereo not drawn)	29.4
CN(C)S(=O)(=O)N1CCC(c2cccc(Cc3ccccc3Cl)n2)CC1	18.2
Cc1ccc(CC2CCCN(S(C)(=O)=O)C2)nc1 (stereo not drawn)	-9.35
CCC(=O)N1CCCC(c2ncc3c(n2)CCN(C)C3)C1 (stereo not drawn)	-8.89
CNc1cc(CNC(=O)c2ccncc2)nc(-c2ccncc2)n1	-2.12
CNc1cc(CNC(=O)c2ccnc(OC)c2)nc(-c2ccncc2)n1	11.8
Cc1cc(C)nc(N2CCCC(c3cccc(-n4ccnc4)n3)C2)n1 (stereo not drawn)	-5.86
NC[C@H]1CC[C@H](C(NC(=O)CC2CCCCC2)c2ccccn2)CC1 (stereo partly drawn)	-6.94
Cc1cc(C)nc(N2CCC(c3cncc(-n4ccnc4)n3)CC2)n1	-6.63
CC(=O)N1CCC(c2cc(C(F)(F)F)nc3nccn23)CC1	-8.29
COCCN1CCCC1c1nccnc1Nc1nccs1 (stereo not drawn)	-4.09
COCCN1CCCC1c1nccnc1Nc1ncc(C)s1 (stereo not drawn)	-1.57
Cc1ncncc1C(=O)N1CCCC(c2[nH]ncc2S(C)(=O)=O)C1 (stereo not drawn)	-6.13
CO[C@H]1CN(Cc2ccc(F)c(F)c2)C[C@@]12CCCO2	-2.35
C[C@]1(O)CCN(Cc2cccnc2)C[C@@H]1Oc1cccc(F)c1	-2.19
Cn1cccc1C(=O)N1CCC(O)(CN2CCc3ccccc3C2)C1 (stereo not drawn)	-4.98

Structure (SMILES)	cytotoxicity at 70.5 h [%]
Cc1cc2cc(C(=O)N[C@@H]3CC[C@@H](N4CCNC(=O)C4)[C@@H]3O)ccc2o1	-7.85
CCN(CC)S(=O)(=O)NCC1Cc2ccccc2O1 (stereo not drawn)	-3.76
O=C(COCC1CCCO1)N(Cc1cccnc1)c1ccc(F)cc1 (stereo not drawn)	2.18
CCN(C)Cc1cccc(CNC(=O)CSCc2ccncc2)c1	-6.72
CC(C(=O)NCC(C)(C)c1ccc(Br)cc1)n1cncn1 (stereo not drawn)	-12.2
Cc1nn(C)c(C)c1CCC(=O)NCC1(C(N)=O)CCOCC1	-17.6
Cc1nc(C)n(CC2CCCN2c2ncnc3sc(C)c(C)c23)n1 (stereo not drawn)	-3.31
Cc1ncc2c(n1)CN(Cc1nc(-c3ccco3)oc1C)CC2	-10.5
Cc1nc(NCc2nnc(C)n2C)c2c(CC(C)C)csc2n1	0.805
CCC(C#N)NC(=O)c1sccc1OC (stereo not drawn)	-10.7
COC(=O)CCN(C)C(=O)c1csc(Cc2ccccc2F)n1	0.501
CC1(C)CN(Cc2ccncc2)CCS1(=O)=O	24.1
CN(C)CC(O)Cn1cc(NCc2ccc(Br)cc2)cn1 (stereo not drawn)	-2.01
N#Cc1ccc(Cl)cc1NCC1CCOC1 (stereo not drawn)	-1.84
CS(=O)(=O)CCCNc1cccc(COC2CCCCC2)c1	-12.7
Cc1ccc(CN2CCS(=O)(=O)C(C)(C)C2)cc1C	20.3
CCCSCC(=O)NCc1cccc(CN(C)CC)c1	-9.96
COc1ccc(CNC(C)c2cnn(C)c2)cc1OC1CCCC1 (stereo not drawn)	-3.45
Fc1ccc(OCCCNC2=NCCCN2)cc1	-5.27
c1ccc(OCCNC2=NCCCN2)cc1	24.2
